# From patent US20090028925A1, “Novel Phosphinic Acid-Containing Thyromimetics” (priority 2005, published 2009)
# Tests used:
# [1] = effects on cholesterol and TSH at the same or not pharmacologically different doses; cited from earlier work
# [2] = rodent models and monkeys; cited from earlier work
# [3] = in the monkey; cited from earlier work
# serum cholesterol = test: Subacute study in cholesterol-fed rats, IP: serum cholesterol; assay type: in vivo; settings: IP once-a-day for seven days
# [4] = tested on: liver mitochondrial glycerol phosphate dehydrogenase (mGPDH) activity; test: Subacute study in normal rats, continuous infusion: liver mGPDH activity; assay type: in vivo, rats (Sprague-Dawley); settings: continuous infusion 1 mg/kg/day
# Excerpt: (§1) Efficacy endpoints include serum cholesterol, liver mitochondrial glycerol phosphate dehydrogenase (mGPDH) activity and the expression of relevant liver genes (e.g., the LDL-receptor, apoB, cpt-1, spot14 and apoAI). Safety parameters include heart weight, heart rate, heart mGPDH activity, the expression and key genes involved in cardiac structure and function (e.g., Serca2, HCN2, Kv1.5, MHCα, MHCβ, Alpha1c), and standard plasma chemistry analysis (liver enzymes, electrolytes, creatinine). Endocrine effects are monitored by analysis of serum thyroid stimulating hormone (TSH). [Taylor et al., Mol Pharmacol 52(3): 542-7 (1997); Weitzel et al., Eur J Biochem 268(14):4095-4103 (2001)]
# (§2) Methods: mGPDH activity was analyzed in isolated mitochondria using 2-(4-iodophenyl)-3-(4-nitrophenyl)-5-phenyl tetrazolium chloride as the terminal electron acceptor (Gardner R S, Analytical Biochemistry 59:272 (1974)). Commercially available GPDH was used in each assay as a standard (Sigma, St. Louis, Mo.). Changes in levels of mRNA for liver and heart genes are analyzed using reverse transcriptase followed by real-time PCR analysis. The analysis is performed using an iCycler instrument (Biorad) and appropriate primers by means of standard methodology [e.g., Schwab D A et al. (2000) Life Sciences 66: 1683-94]. The amounts of mRNA are normalized to an internal control, typically, cyclophilin. Serum TSH is measured using an enzyme immunoassay (EIA) kit designed for rat TSH (Amersham Pharmacia Biotech, Arlington Heights, Ill.).
# (§3) Normal rats (Sprague-Dawley) were maintained on a standard diet. […] The compounds were brought up to an appropriate volume using PBS and BSA to maintain solubility within the pump. The compounds were chemically stable in the excipient at 37° C. for 7 days.
# (§4) Values are expressed as percent of control. (Table 4)
# [5] = Continuous infusion study in rats on a cholesterol-containing diet; assay type: in vivo; settings: continuous infusion 1 mg/kg/day
# Method: Screening for thyromimetic activity was performed in normal rats maintained on a cholesterol-containing diet. Compounds were administered by continuous infusion using an osmotic pump at 1 mg/kg/day.
# [6] = Tissue distribution and pharmacokinetics following IP administration to normal rats; assay type: in vivo, SD rats; settings: 10 mg/kg IP
# Excerpt: At pre-selected time points following dosing, the rats were anesthetized using iso-fluorane and the peritoneal cavity was then opened and a blood sample was obtained from the abdominal vena cava. In addition, liver, kidney, and heart were excised and immersed in 3 volumes of cold 60% acetonitrile. The blood samples were briefly centrifuged and the plasma fraction was then extracted with 1.5 volumes of methanol, processed, and analyzed by LC-UV as described in Example G. The frozen liver, kidney, and heart tissue were homogenized in 60% v/v acetonitrile, centrifuged, and then analyzed by LC-UV. Pharmacokinetic parameters and AUC of the plasma and tissue concentration-time profiles were determined noncompartmentally by WinNonLin.
# [7] = Subacute study in cholesterol-fed rats, IP: heart weight and heart mGPDH activity
# Method: The cholesterol-fed rat is an animal model of hypercholesterolemia generated by feeding the animals a diet with high cholesterol content.
# Serum cholesterol values were assessed and the animals randomized into groups for treatment.
# [8] = Subacute study in normal rats, continuous infusion: heart weight; assay type: in vivo, rats (Sprague-Dawley); settings: continuous infusion 1 mg/kg/day
# Excerpt: as §1, §3, §4
# heart mGPDH activity = test: Subacute study in normal rats, continuous infusion: heart mGPDH activity; assay type: in vivo, rats (Sprague-Dawley); settings: continuous infusion 1 mg/kg/day
# Excerpt: as §1, §2, §3, §4
# [9] = rat, in vivo, 28 days
# Experimental: Compound 18 was administered at doses up to 5 mg/kg/d. Compound cis-13-1 was administered at doses up to 50 mg/kg/d. We reasoned that the ZDF rat, as a metabolically challenged animal model, would be more sensitive to the potential adverse cardiac effects of thyromimetics than a normal, cholesterol-fed rat. At sacrifice, heart rate, and the first derivative of left ventricular pressure (LV dP/dt) were measured with a Millar catheter inserted into the left ventricle.
# [10] = design: species or system rats; settings: rat, in vivo
# Experimental: The oral bioavailability (OBAV) of Compound 12-1, a bis POM prodrug of Compound 7, was estimated by comparison of the dose-normalized area under the curve (AUC) of the plasma concentration-time profile of Compound 7 following IV and PO administration of Compound 7 and Compound 12-1, respectively, to normal rats.
# Method: Groups of non-fasted male SD rats were administered either 5 mg/kg of Compound 7 by IV bolus or 20 mg/kg of Compound 12-1 by oral gavage. Prior to drug administration, the rats were catheterized at the tail artery to facilitate blood collection. Plasma samples were obtained at pre-specified time points following dosing, extracted with 1.5 volumes of methanol, and then assayed by an LC-UV method using a C18 column eluted with a gradient of 20% to 45% v/v acetonitrile in a potassium phosphate buffer pH 6.2 over 15 min with UV absorbance monitoring at 280 nm. The AUC values were determined noncompartmentally from the plasma concentration-time plots by trapezoidal summation to the last measurable time point.
# Plasma levels of compound were analyzed by HPLC and the AUCs for the i.v. dose of 5 mg/kg and the p.o. dose of 20 mg/kg were compared. The maximum OBAV for Compound 19-2 was 0.003%. Typically, compounds that are taken forward as an oral drug candidate have OBAV values of at least 15-20%, when tested in an animal model. This minimal requirement for OBAV in a genetically homogenous model system insures that exposure can be accurately monitored when humans are treated with the compound. Furthermore, in a genetically variable background such as humans, the variability for a compound with low OBAV in genetically homogenous model systems, can be widely variable, leading some subjects to have much higher than anticipated exposure, while other subjects have no exposure.
# plasma cholesterol = test: Cholesterol lowering in hypercholesterolemic rats; assay type: in vivo; settings: Rattus norvegicus, po; delivered p.o. (0.5 mg/kg/d); percentage change from pre-dose cholesterol; read-out: % Cholesterol Lowering
# [11] = Whole animal resting oxygen consumption; assay type: in vivo, Sprague Dawley rats
# Experimental: Thermogenesis is a measurement of energy consumption. Compounds that increase thermogenesis are likely to increase caloric expenditure and thereby cause body weight loss and its associated benefits to metabolic status (e.g., insulin sensitivity). Thermogenesis is assessed in subcellular fractions of various tissues, isolated cells, whole tissues, or in whole animals using changes in oxygen consumption as the endpoint. Oxygen is used up when calories are burned by various metabolic processes. Methods: Animals are dosed once or several times a day via a parenteral or oral route for a treatment period ranging from 1 day to several weeks. Oxygen consumption is measured following a single or multiple days of treatment. In one assay, whole animal oxygen consumption is measured using an indirect calorimeter (Oxymax, Columbus Instruments, Columbus, Ohio). Animals are removed from their cages and placed in the chambers. The resting oxygen consumption is measured in animals during periods of inactivity as measured by activity monitors. The oxygen consumption is calculated based on the flow through the chamber and the difference in oxygen partial pressures at the inflow and outlet ports. Carbon dioxide (CO2) efflux is also measured in parallel using a CO2 electrode. […] Rats were placed in the FoxBox apparatus (Sable Systems, Las Vegas, Nev.), allowed to acclimate and the resting oxygen consumption was measured. The oxygen consumption rates were compared to pre-dose measurements taken on each individual animal. […] Thus, the compounds of the present invention are useful in increasing oxygen consumption.
# Glucose in ZDF rats = assay type: in vivo
# Experimental: The decrease was dose dependent. Blood glucose levels at those doses corresponded to 442 mg/dL and 243 mg/dL, respectively. Similar changes were also evident at two weeks, post-treatment.
# [12] = Cardiovascular activity in the Sprague Dawley rat (HR, LV dP/dt, aortic pressure, heart weight); assay type: in vivo; settings: SD rats, 7 days
# Excerpt: Method: […] The control group (n=6) was given vehicle only. […] On the 7th day after the start of dosing, animals were anesthetized with Isofluorane and the left ventricle cannulated with a high fidelity catheter tip transducer via the right carotid artery. Left ventricular pressure, its first derivative (LVdP/dt), lead I ECG, and heart rate (HR) triggered off the ECG waveform, were digitally recorded. LV dP/dt is a well accepted measure of ionotropic state. Systolic and diastolic aortic pressures were measured by retracting the catheter into the proximal aorta.
# liver triglycerides = test: Hepatic triglyceride content in normal rats, chronic infusion; assay type: in vivo; settings: normal rats chronically infused for 7 days
# Experimental: Normal rats were chronically infused with Compound 7 for 7 days. Liver triglycerides were analyzed following lipid extraction by the Bligh Dyer method (Bligh E G and Dyer W J, A rapid method of total lipid extraction and purification. Can J Med. Sci. 1959 (August); 37(8):911-7, incorporated herein by reference). Total triglycerides were analyzed in the liver extracts by an enzymatic assay (Thermo Electron Corporation). Total lipid was normalized to initial liver weight and triglyceride content was normalized to liver weight. […] There was a 4% reduction in liver triglycerides for this group and the results were not statistically significant.
# human hepatoma cells = settings: via thyroid hormone receptor activation; cited from earlier work
compound,measurement,setting,value
"CC(C)c1cc(Oc2c(Cl)cc(CC(=O)O)cc2Cl)ccc1O [3,5-dichloro-4-[4-hydroxy-3-(1-methylethyl)phenoxy]benzeneacetic acid]",TSH levels,[1],dose-dependently lower
same,cholesterol levels,[1],dose-dependently lower
same,weight loss in animals,[2],weight loss
same,Lp(a) levels,[3],decrease Lp(a) levels
"Cc1cc(OCC(=O)O)cc(C)c1Cc1ccc(O)c(C(C)C)c1 [Compound 17, [3,5-dimethyl-4-(4′-hydroxy-3′-iso-propylbenzyl)phenoxy]acetic acid, reference compound]",doses that significantly decreased serum cholesterol,serum cholesterol,0.1 to 1 mg/kg/day
same,Liver GPDH,[4],426% of control
same,increase of systolic and diastolic blood pressure,[5],30%
same,cholesterol,[5]; day 7,significant decrease in cholesterol
same,increase of heart rate,[5]; day 7,40%
same,cholesterol,[5]; day 14,no significant decrease in cholesterol was observed
same,increase of LV dP/dt,[5]; end-of-life,71%
same,left ventricular weight,[5]; end-of-life,increased
same,Heart AUC,[6],27.6 nmol·h/g
same,Kidney AUC,[6],1.1 nmol·h/g
same,Liver AUC,[6],48.5 nmol·h/g
same,AUC,"[6]; male, SD, rat, plasma",2800 ng·h/mL
same,Cmax,"[6]; male, SD, rat, plasma",3490 ng/mL
same,Tmax,"[6]; male, SD, rat, plasma",20 min
same,CL/F,"[6]; male, SD, rat, plasma, read-out: Cl(observed)/F (converted)",56 mL/min/kg
same,Vd/F,"[6]; male, SD, rat, plasma, read-out: Vz(observed)/F",2.2 L/kg
same,AUMClast,[6]; plasma,1.7683 μg * hr^2/mL
same,Tlast,[6]; plasma,2 h
same,cardiac hypertrophy,[7]; IP once-a-day for seven days,cardiac hypertrophy was observed
same,Cardiac GPDH activity,"[7]; IP, 1 mg/kg/day",increased
same,Heart Weight,[8],134% of control
same,Heart GPDH,heart mGPDH activity,277% of control
Cc1cc(OC[P@@]2(=O)OCC[C@@H](c3cccc(Cl)c3)O2)cc(C)c1Cc1ccc(O)c(C(C)C)c1 [Compound cis-13-1],"TI Improvement over Compound 18, ED15 HR",[9]; ZDF,>39
same,"TI Improvement over Compound 18, ED25 LV dP/dt",[9]; ZDF,>102
same,calculated TI with respect to LV dP/dt,[9],"> 10,000"
same,calculated TI with respect to heart rate,[9],> 3900
same,OBAV when AUC's of Compound cis-13-1 are used,[10],25%
same,OBAV when comparing the AUC's of Compound 7,[10],40-50%
same,change in vivo at 0.5 mg/kg/day,plasma cholesterol,-31.8%
same,"Oxygen consumption following treatment, % of the pre-dose rate",[11]; 3 mg/kg/d orally for 14 days,116%
same,"Oxygen consumption following treatment, % of the pre-dose rate",[11]; 10 mg/kg/d orally for 14 days,125%
same,"Oxygen consumption following treatment, % of the pre-dose rate",[11]; 30 mg/kg/d orally for 14 days,132%
same,water consumption,Glucose in ZDF rats,dose-dependent decrease in the water consumption
same,Plasma glucose at sacrifice,"Glucose in ZDF rats; 4 weeks of treatment, decreased from 618 mg/dL",437 mg/dL
same,Blood glucose levels,"Glucose in ZDF rats; 4 weeks of treatment, versus 442 mg/dL",243 mg/dL
same,"HR, LV dP/dt, systolic and diastolic aortic pressures","[12]; oral gavage 1, 5, 10, 30, 50 mg/kg/day",not significantly different compared to vehicle treated animals
same,heart weight or heart weight/body weight ratios,[12]; oral gavage 1-50 mg/kg/day,no significant changes in heart weight
"N[C@@H](Cc1ccc(Oc2cc(I)c(O)c(I)c2)c(I)c1)C(=O)O [Compound T3, 3,3′,5′-triiodothyronine, reference compound]",Liver GPDH,[4],406% of control
same,reduction in liver triglycerides,liver triglycerides,4%
same,Heart Weight,[8],146% of control
same,Heart GPDH,heart mGPDH activity,284% of control
"Cc1cc(NC(=O)C(=O)O)cc(C)c1Oc1ccc(O)c(C(C)C)c1 [CGS23425, [[4-[4-hydroxy-3-(1-methylethyl)phenoxy]-3,5-dimethylphenyl]amino]oxo acetic acid]",apoAI expression,human hepatoma cells,increased apoAI expression
